Data reported in US8481005B2, “Methods to prevent cytotoxicity using N-acetyl-cysteine” (priority 2006, dated 2013).

What was measured:
[1] = test system: HEp2 cells co-cultured with PBMCs; test: IL-6 in co-cultures of HEMA/NAC treated HEp2 cells with healthy donor PBMCs; type: cell-based, human
Method: HEp-2 cells obtained from ATCC were cultured in DMEM supplemented with 10% FBS, 1% sodium pyruvate, 1% non essential amino acids and 1% antibiotic-antimycotic solution. […] The cells were trypsinized and washed 4 times with 1×PBS before they were co-cultured with PBMCs obtained from a healthy individual. A 4:1 ratio of effector to target cells (PBMC:HEp2) were used in these cultures. PBMCs were treated with and without IL-2 before they were co-cultured with HEp-2 cells. The supernatants were then removed from the co-cultures after an overnight incubation and analyzed using the FAST QUANT multiplex cytokine array kit to determine the levels of secreted cytokines.

[2] = test system: peripheral blood mononuclear cells; test: PI/Annexin V apoptosis in peripheral blood mononuclear cells; type: cell-based, human; conditions: PBMCs, overnight
Method: PBMCs were isolated and obtained after Ficoll-hypaque centrifugation as described in Jewett et al., 159, J. Immunol. (1997) which is hereby incorporated by reference. Specifically, human peripheral blood was obtained from normal donors in the laboratory as per guidelines of the UCLA Human Subject Protection Committee. The blood was fractionated on Ficoll-Hypaque, and the buffy layer was harvested, washed and resuspended in media.
Peripheral blood mononuclear cells were then cultured in RPMI 1640 supplemented with 10% FCS, 1% penicillin-streptomycin, 1% sodium pyruvate and 1% non-essential amino acids.
Cells were simultaneously treated in the presence and absence of NAC overnight. […] It is quite well known that apoptotic cells initially lose their size and gain in granularity when they undergo cell death. These changes are one hallmark of apoptosis.

[3] = test system: odontoblasts; test: ALP staining of rat odontoblasts; type: cell-based; conditions: 0.00328M HEMA; overnight, 7 days or 14 days
Method: Restoring the function of cells is also very important. Therefore, ALP staining was performed as a measure of odontoblast function. […] Following this incubation, cells were washed twice with PBS and incubated with 120 mM of Tris buffer (pH=8.4) containing 0.9 mM Napthol AS-M Phosphate and 1.8 mM Fast Red TR for 30 minutes at 37° C. Afterwards the cells were washed three times with PBS and then fixed with 1 ml cold ethanol (100%) for about 30 minutes. The stained cultures were digitized using a scanner.

[4] = test system: caspases 9 and 3; test: Full length caspases 9 and 3 in HEp2 cells (Western blot); type: cell-based; conditions: 0.0164M HEMA about 18 hours
Method: Protein concentrations were determined by a DC protein assay kit (Bio-Rad, Hercules, Calif.). An aliquot of total protein lysate was diluted in an equal volume of about 2% SDS sample buffer, about 6.2 mM Tris (pH about 6.8), about 2.3% SDS, about 5% mercaptoethanol, about 10% glycerol, and about 0.02% bromophenol blue and boiled for about 10 minutes. The cell lysates (40 μg) were then electrophoresed on 12% SDS-PAGE gels and were subjected to Western blot analysis. Levels of β-tubulin and actin were used to normalize the protein expression. Relative concentrations were assessed by densitometric analysis of digitized autographic images. The anti-actin and anti-β-tubulin monoclonal antibodies were purchased from Santa Cruz Biotechnology (Santa Cruz, Calif.) and from Calbiochem (San Francisco, Calif.) respectively. The polyclonal antibodies anti-caspase 3 and anti-caspase 9, were obtained from Cell Signaling (San Diego, Calif.). […] Decreased Processing and Cleavage of Caspase 3 in the Presence of NAC

[5] = test system: Caspase 3; test: Full length caspase 3 in keratinocytes; type: cell-based; conditions: about 8 hours, NAC 20 mM
Source text: Roles of NFkB and GAPDH in HEMA-Mediated Cell Death

[6] = test system: NFkB knock down oral keratinocytes; test: Cell death in NFkB knock down oral keratinocytes (FS/PI); type: cell-based, human; conditions: overnight
Source text: Next, retrovirally-transduced oral keratinocytes were left untreated or treated with HEMA. […] Numbers in each quadrant represent the percentages of cells in that quadrant.
Similar treatments were next performed as described above except that the morphological assessment of oral keratinocytes before and after HEMA treatment was examined.

[7] = test system: GAPDH mRNA; test: GAPDH mRNA in dental pulp stromal cells (RT-PCR); type: cell-based; conditions: HEMA alone or with NAC 20 mM, 4 hours
Method: The role of GAPDH in HEMA-mediated cytotoxicity was also evaluated. […] In comparison no significant decrease in β-actin and collagen-1 under the same experimental conditions could be seen.

[8] = test system: PBMCs; test: PBMCs treated with HEMA or CDDP, FITC-Annexin V and PI; type: cell-based; conditions: about 18 hours, highest concentration of CDDP, HEMA 0.0164M-0.00164M
Source text: The cells were then stained with FITC-Annexin V and PI according to the manufacturer's protocol.

[9] = test system: osteoblasts; test: Cell death of osteoblasts differentiated from mesenchymal stem cells; type: cell-based
Method: In a subsequent study, mesenchymal stem cells were differentiated to osteoblasts in differentiation media. […] Treated osteoblasts were then removed and cell death was determined using FITC-Annexin V and PI staining.

[10] = test system: human smooth muscle cells; test: VEGF secretion of human smooth muscle cells (ELISA); type: cell-based; conditions: HEMA (0.082M) alone or with NAC 20 mM, 4 hours, then overnight
[11] = test system: dental pulp stromal cells; test: Cell death in rat dental pulp stromal cells in vitro; type: cell-based, Sprague-Dawley rats; conditions: 0.0328M and 0.00328M HEMA with NAC 20 mM, about 12-14 hours, versus HEMA alone
Source text: In a first study using dental pulp stromal cells, dental pulp tissue was extracted from the lower central incisors of 8-12 week old male Sprague-Dawley rats. The lower central incisors were carefully extracted without fracture to avoid periodontal tissue influx into the pulp tissue. The periodontal tissue and other soft tissue remnants were removed from the root part of the teeth, and the incisor tip and root parts were then cut to allow the pulp tissue to be washed out. The extracted tissue was then treated with 0.1% collagenase in 0.25% trypsin EDTA at 37° C. for about 15 minutes. The pellet of released cells was then centrifuged at about 2000 rpm for about 4 minutes and resuspended in DMEM supplemented with 10% FBS, 1% sodium pyruvate, 1% non-essential amino acids and 1% antibiotic-antimycotic. The cells were cultured in a 6 well plate and the media was changed every 3 days.

[12] = test system: dental pulp cells; test: Rat incisor restoration with Herculite XR/ProBOND with or without NAC: pulp cell growth and ALP staining; type: in vivo, rats; conditions: restorative materials about 5 hours
Method: In a next experiment, the incisors of nine eight-week-old male rats were prepared with class V preparations near the level of the gingival using a #1 round bur in a high speed dental handpiece.
Again, in this experiment upper and lower incisors were used. Restorative materials were placed on the teeth for about 5 hours. The pulp was extracted and treated with trypsin/EDTA (0.25%) and collagenase (0.02%), washed and resuspended in DMEM containing β-glycerophosphate (10 mM) and ascorbic acid (50 μg/ml) and allowed to grow to confluency. After 14 days of cell growth (media changed every 2-3 days) photographs were taken using an inverted microscope; cells were detached and counted in each experimental group; and wells containing different experimental groups were stained for alkaline phosphatase (ALP).
In vivo studies were performed after tooth restorations to assess the protective effect of NAC on both the viability and function of rat pulp tissue. Eight week old male rats were used for restorations of the incisors. In this study the number of functional cells in cells extracted from the lining of the rat teeth where (A) no restorative materials were administered; (B) restorative materials only were applied; and (C) restorative material in conjunction with NAC were compared. Specifically, nine rats were used and were divided into 3 groups (A, B or C) of 3 rats each. […]

[13] = test system: human dental pulp stromal cells; test: Apoptosis in human dental pulp stromal cells, 18 hours; type: cell-based; conditions: HEMA and NAC 20 mM
Method: Pulp was then removed, minced and treated with trypsin/EDTA and collagenase to release the dental pulp stromal cells. […] Next the cells were analyzed for apoptosis using FTIC-Annexin V and PI.

[14] = test system: human dental pulp stromal cells; test: ALP staining of human dental pulp stromal cells; type: cell-based; conditions: after 7 days of incubation; NAC 20 mM
Method: Following the experiment described above in human dental pulp stromal cells, treatments were carried out as described above with the levels of ALP staining representing maturation/differentiation of dental pulp stromal cells. This staining was performed after 7 days of incubation. […] Odontoblasts

[15] = test system: gingival cells; test: PI/FITC-Annexin V cell survival of rat gingival cells; type: cell-based; conditions: 0.0164M-0.00164M HEMA with NAC 20 mM, about 12-14 hours, versus HEMA alone
Method: Rat gingival cells were obtained from 8 week old male rats and cultured in DMEM supplemented with 10% FBS, 1% antibiotic-antimycotic, 1% sodium pyruvate and 1% non-essential amino acids. […] Cell survival was measured by PI/FITC-Annexin V staining as described previously.

[16] = 0.0164M HEMA alone (HEMA) or also treated with NAC (NAC)

**Q.** C=C(C)C(=O)OCCO [HEMA, hydroxyethyl methacrylate] was tested. Which IL-6 ([1]; HEp2 +0.00082M HEMA, −/+NAC, PBMC +IL-2) did it give?
**A.** Its IL-6 is 371 pg/mL.

**Q.** What about the IL-6 ([1]; HEp2 +0.00082M HEMA, −/+NAC, PBMC −IL-2) of the same compound?
**A.** Its IL-6 is 204 pg/mL.

**Q.** And the IL-6 ([1]; HEp2 +0.00164M HEMA, −/+NAC, PBMC +IL-2)?
**A.** The IL-6 was 264 pg/mL.

**Q.** And the IL-6 ([1]; HEp2 +0.00164M HEMA, −/+NAC, PBMC −IL-2)?
**A.** Its IL-6 is 208 pg/mL.

**Q.** What about the IL-6 ([1]; HEp2 +0.0082M HEMA, −/+NAC, PBMC +IL-2) of the same compound?
**A.** The IL-6 was 243 pg/mL.

**Q.** What about the IL-6 ([1]; HEp2 +0.0082M HEMA, −/+NAC, PBMC −IL-2) of the same compound?
**A.** Its IL-6 is 192 pg/mL.

**Q.** And the IL-6 ([1]; HEp2 +0.0164M HEMA, −/+NAC, PBMC +IL-2)?
**A.** Its IL-6 is 262 pg/mL.

**Q.** What about the IL-6 ([1]; HEp2 +0.0164M HEMA, −/+NAC, PBMC −IL-2) of the same compound?
**A.** Its IL-6 is 191 pg/mL.

**Q.** And the “cells in the stage of late apoptosis (PI/Annexin V)” value ([2]; 0.0082M HEMA alone (HEMA) or also treated with NAC (NAC))?
**A.** Its value is 39%.

**Q.** And the “cells in the stage of late apoptosis (PI/Annexin V)” value [2, 16]?
**A.** The value was “about 45%”.

**Q.** What about the “ALP staining (odontoblast function)” value [3] of the same compound?
**A.** The value was “significantly less staining”.

**Q.** What about the “full length caspases 9 and 3 levels” value [4] of the same compound?
**A.** The value was “diminishes full length caspases 9 and 3 levels”.

**Q.** And the “levels of full length caspase 3 (processing of caspase 3)” value [5]?
**A.** The value was “decrease in the levels of full length caspase 3”.

**Q.** And the “cell death (FS, PI staining)” value [6]?
**A.** The value was “induces significant cell death”.

**Q.** And the “GAPDH mRNA” value [7]?
**A.** The value was “significant inhibition of GAPDH mRNA”.

**Q.** What about the “cells remained both PI and Annexin V negative” value [8] of the same compound?
**A.** Its value is “less than 50%”.

**Q.** What about the “cells that underwent cell death” value ([9]; osteoblasts, 0.0164M HEMA) of the same compound?
**A.** Its value is 49.7%.

**Q.** And the VEGF secretion [10]?
**A.** The VEGF secretion was “significantly reduced VEGF secretion”.

**Q.** Which results are given for CC(=O)N[C@@H](CS)C(=O)O [NAC, N-acetyl-cysteine]?
**A.** IL-6 ([1]; HEp2 −HEMA (+NAC), PBMC +IL-2): 1835 pg/mL; IL-6 ([1]; HEp2 −HEMA (+NAC), PBMC −IL-2): 880 pg/mL; cells in the stage of late apoptosis (PI/Annexin V) [2, 16]: about 25%; viable cells after HEMA exposure [11]: higher number of viable cells; pulp cell number after restoration ([12]; 14 days of cell growth): can help to prevent the cell loss; ALP staining of pulp cells after restoration ([12]; composite resin with or without NAC): can be ameliorated; inhibition of HEMA-mediated cell death [13]: significant inhibition of HEMA-mediated cell death at all HEMA concentrations; HEMA-mediated decrease in ALP [14]: significantly prevented; ALP staining (odontoblast function) [3]: positive for ALP staining; viable cells after HEMA exposure [15]: higher number of viable cells; full length caspases 9 and 3 levels [4]: inhibits HEMA-mediated decrease in caspases 9 and 3; levels of full length caspase 3 (processing of caspase 3) [5]: this decrease is inhibited; GAPDH mRNA [7]: prevented this inhibition; prevention of HEMA-mediated cell death ([9]; NAC 20 mM, 18 hours): can prevent HEMA-mediated cell death; VEGF secretion [10]: could be reversed
